Results published in patent US8507219B2, “Method of treating inflammation with statins” (MUSC Foundation for Research Development, priority 1997, dated 2013).
Entries after “also recorded” stand apart in the source; their conditions may differ. Where two headings read alike, the source gives them in different places.

How the values were obtained:
[1] = tested on: astrocytes, microglia or macrophages
From the text: Cell viability Cytotoxic effects of the inhibitors were deter-mined by measuring the cell viability by Trypan blue exclusion.

[2] = tested on: NOS activity in rat resident macrophages; experiment: NOS activity (L-citrulline from L-arginine) in homogenates of treated rat resident macrophages; type: cell-based; conditions: for inhibition at 20000 µM: Rattus norvegicus, Macrophage
Procedure: NOS activity was measured directly by production of L-[2,3,4,5-^3H]citrulline from L-[2,3,4,5-^3H] arginine (Feinstein et al., 1994a). […] Assays were carried out for 30 to 40 min and the production of L-[2,3,4,5-^3H] citrulline was linear. The reactions were stopped by addition of 800 μl of ice-cold 20 mM HEPES (pH 5.5) followed by addition of 2 ml of Dowex-50W equilibrated in the same buffer. The samples were then centrifuged and the concentration of L-[^3H]citrulline was determined in the supernatant by liquid scintillation counting.

[3] = tested on: rat primary oligodendrocytes; experiment: Apoptosis (DNA fragmentation, laddering) in rat primary oligodendrocytes; type: cell-based; conditions: 10 mM NAC 1 h; diamide 0.5 mM, TNF-α 50 ng/ml or C2-ceramide; 12 h
Procedure: Detection of DNA fragmentation Cells (1×10^6) were pelleted in an eppendorf tube by centrifugation at 1,000 rpm for 5 min, washed with PBS (pH 7.4), resuspended gently in 50 μl of a lysis buffer [200 mM NaCl, 10 mM Tris-HCl (pH 8.0), 40 mM EDTA (pH 8.0), 0.5% SDS, 400 ng RNase A/μl] and incubated at 37° C. for 1 h. The lysate received 200 μl of the digestion buffer [200 mM NaCl, 10 mM Tris-HCl (pH 8.0), 0.5% SDS, 125 ng proteinase K/μl]. The contents were mixed by inversion several times and then incubated at 50° C. for 2 h. An equal volume of a mixture phenol (pH 8.0), chloroform and isoamyl alcohol (25:24:1, v/v) was added, gently mixed for 10 min, and stored at room temperature for 2 min. […] The gel was stained with ethidium bromide and DNA-intercalated ethidium fluorescence was photographed on Polaroid film 665 (P/N) using an orange filter. […]
Detection of DNA Fragmentation Cells (1×10^6) were pelleted in an Eppendorf tube by centrifugation at 1000 rpm for 5 min, washed with phosphate-buffered saline, pH 7.4, resuspended gently in 50 μl of a lysis buffer (200 mM NaCl, 10 mM Tris-HCl, pH 8.0, 40 mM EDTA, pH 8.0, 0.5% SDS, 400 ng of RNase A/μl), and incubated at 37° C. for 1 h. […] The gel was stained with ethidium bromide, and DNA-intercalated ethidium fluorescence was photographed on Polaroid film 665 (P/N) using an orange filter. […]

[4] = tested on: cholesterol synthesis in rat primary astrocytes
[5] = IFN-γ 200 U/ml, NAC 20 mM 2 h before
[6] = IL-1β 200 ng/ml, NAC 20 mM 2 h before
[7] = LPS 0.2 μg/ml + IFN-γ 50 U/ml, NAC 20 mM 2 h before
[8] = LPS 0.2 μg/ml + IL-1β 25 ng/ml, NAC 20 mM 2 h before
[9] = LPS 0.2 μg/ml + TNF-α 20 ng/ml, NAC 20 mM 2 h before
[10] = LPS 1.0 μg/ml, NAC 20 mM 2 h before
[11] = TNF-α 20 ng/ml + IFN-γ 50 U/ml, NAC 20 mM 2 h before
[12] = TNF-α 20 ng/ml + IL-1β 25 ng/ml, NAC 20 mM 2 h before
[13] = TNF-α 100 ng/ml, NAC 20 mM 2 h before
[14] = no stimulus (Control), NAC 20 mM

For CC[C@H](C)C(=O)O[C@H]1C[C@@H](C)C=C2C=C[C@H](C)[C@H](CC[C@@H]3C[C@@H](O)CC(=O)O3)[C@H]21 [Lovastatin], the “viability (trypan blue exclusion)” value [1] was “had no effect on the viability of astrocytes, microglia, or macrophages” and the “viability (trypan blue exclusion)” value ([1]; rat) was “none of the compounds lovastatin, mevastatin, NaPA, TNF-α, IL-1β, IFN-γ, or LPS had a significant effect on the viability”.

CC(=O)N[C@@H](CS)C(=O)O [NAC, N-acetyl cysteine] was tested, and the “L-citrulline (NOS activity)” value [2, 5] was 13.2 ± 2.4 pmol/min/mg, the “L-citrulline (NOS activity)” value [2, 6] was 12.9 ± 2.1 pmol/min/mg and the “L-citrulline (NOS activity)” value [2, 7] was 32.3 ± 4.6 pmol/min/mg. For the same compound, the “L-citrulline (NOS activity)” value [2, 8] was 44.9 ± 6.1 pmol/min/mg, the “L-citrulline (NOS activity)” value [2, 9] was 19.7 ± 2.7 pmol/min/mg and the “LPS-induced NOS activity, L-citrulline formation” value ([2]; LPS 1.0 μg/ml, 24 h) was “formation of L-citrulline was strongly inhibited; also recorded: inhibited LPS-induced NOS activity”. For the same compound, the “L-citrulline (NOS activity)” value [2, 10] was 14.2 ± 2.3 pmol/min/mg, the inhibition at 20000 µM [2, 5] was 90% and the inhibition at 20000 µM [2, 6] was 43%. The inhibition at 20000 µM [2, 7] was 83%, the inhibition at 20000 µM [2, 8] was 78% and the inhibition at 20000 µM [2, 9] was 91%. It also gave an inhibition at 20000 µM [2, 10] of 91%, an inhibition at 20000 µM [2, 11] of 82% and an inhibition at 20000 µM [2, 12] of 85%. For the same compound, the inhibition at 20000 µM [2, 13] was 61%, the inhibition at 20000 µM [2, 14] was 25% and the “L-citrulline (NOS activity)” value [2, 11] was 36.9 ± 3.4 pmol/min/mg. For the same compound, the “L-citrulline (NOS activity)” value [2, 12] was 28.2 ± 4.3 pmol/min/mg, the “L-citrulline (NOS activity)” value [2, 13] was 12.9 ± 2.3 pmol/min/mg and the “L-citrulline (NOS activity)” value [2, 14] was 10.2 ± 0.9 pmol/min/mg. The “ceramide formation and DNA fragmentation / apoptosis” value [3] was “inhibited the induction of ceramide formation and DNA fragmentation; also recorded: had no effect on C2-ceramide-mediated apoptosis in oligodendrocytes”.

In the case of O=C([O-])Cc1ccccc1.[Na+] [NaPA, sodium salt of phenylacetic acid], the “inhibition of the synthesis of cholesterol” value [4] is reported as 64±5.3%.
